According to patent publication US11806428B2 (HARM REDUCTION THERAPEUTICS, INC., priority 2011, dated 2023):

Tests used:
[1] = oral administration; cited from earlier work
[2] = intranasal administration
[3] = Safety assessment (adverse events, clinical laboratory results, vital signs, ECGs) in the 4-way crossover study; assay type: in vivo, human
[4] = Prediction of naloxone plasma concentrations with Excel: non-compartmental analysis on mean profiles scaled to the proposed doses; set-up: species or system human
[5] = Prediction of naloxone plasma concentrations with WinNonlin Modeling: compartmental pharmacokinetic model and simulation; set-up: species or system human; details: 36 h
Description: The corresponding C max and AUCt-values are as follows (for the total time period of 36 h): […]

clinical = details: both, human, plasma
[6] = another subject, Day 44, normal before study drug, rated possibly related
[7] = predicted for 0.4 mg IV, based on 1 mg IV data excluding the outlying subject
[8] = predicted for 0.4 mg IV, based on 1 mg IV data, all subjects
[9] = predicted for 1.2 mg IN, based on 8 mg IN data
[10] = predicted for 1.2 mg IN, based on 16 mg IN data
[11] = predicted for 1.6 mg IN, based on 8 mg IN data
[12] = predicted for 1.6 mg IN, based on 16 mg IN data

SMILES: C=CCN1CC[C@]23c4c5ccc(O)c4O[C@H]2C(=O)CC[C@@]3(O)[C@H]1C5 [naloxone]
- oral bioavailability [1]: < 3%
- peak plasma concentrations attained as early as (time after dosing) ([2]; earliest): 6 min
- time to peak plasma concentrations, median ([2]; median): 18 min
- treatment-emergent adverse events (TEAEs) ([3]; 1 mg intravenous): 4 TEAEs
- treatment-emergent adverse events (TEAEs) ([3]; 8 mg intranasal): 3 TEAEs
- treatment-emergent adverse events (TEAEs) ([3]; 16 mg intranasal): 5 TEAEs
- treatment-emergent adverse events (TEAEs) ([3]; 16 mg sublingual): 1 TEAE
- changes in ECG ([3]; all treatments): No clinically relevant changes in ECG occurred
- deaths, serious adverse events, other significant adverse events ([3]; all treatments): no deaths, serious adverse events, or other significant adverse events
- markedly abnormal change in blood pressure ([3]; all treatments): one subject
- markedly abnormal changes in pulse rate ([3]; all treatments): Three subjects
- overall trend in abnormal vital sign changes ([3]; all treatments): No overall trend in abnormal vital sign changes was observed
- markedly abnormal high SGPT value [3, 6]: 371 U/l
- markedly abnormal high total bilirubin value [3, 6]: 39.33 µmol/L
- markedly abnormal low potassium value [3, 6]: 3.3 mmol/L
- TEAEs of vasovagal attack ([3]; intranasal application (one after 8 mg, one after 16 mg)): 2 subjects
- TEAEs of vasovagal attack ([3]; intravenous bolus 1 mg): 1 subject
- markedly abnormal high triglyceride value ([3]; one subject, Day 44, 4.189 mmol/l on Day -9 before study drug): 8.355 mmol/L
- AUCt [4, 7]: 3.8122 ng·h/mL
- Cmax [4, 7]: 2.8817 ng/mL
- AUCt [4, 8]: 4.5789 ng·h/mL
- Cmax [4, 8]: 4.7352 ng/mL
- AUCt [4, 9]: 3.1596 ng·h/mL
- Cmax [4, 9]: 1.5352 ng/mL
- AUCt [4, 10]: 2.585 ng·h/mL
- Cmax [4, 10]: 1.0525 ng/mL
- AUCt [4, 11]: 4.2128 ng·h/mL
- Cmax [4, 11]: 2.0469 ng/mL
- AUCt [4, 12]: 3.4467 ng·h/mL
- Cmax [4, 12]: 1.4034 ng/mL
- AUCt [5, 9]: 2.8762 ng·h/mL
- Cmax [5, 9]: 1.5995 ng/mL
- AUCt [5, 10]: 2.1631 ng·h/mL
- Cmax [5, 10]: 0.8935 ng/mL
- AUCt [5, 11]: 3.835 ng·h/mL
- Cmax [5, 11]: 2.1326 ng/mL
- AUCt [5, 12]: 2.8841 ng·h/mL
- Cmax [5, 12]: 1.1913 ng/mL
- bioavailability (clinical; other: intranasal, 8 mg): 32%
- bioavailability (clinical; other: intranasal, 16 mg): 27%
- bioavailability (clinical; other: sublingual, 16 mg): ~2%
